What was measured:
[1] = tested on: SiHa HPV 16 positive cervical cancer cells; test: MTT assay, SiHa cells; assay type: cell-based, human; conditions: 72 h
Procedure: (§1) SiHa and HeLa cervical cancer cells and Human Dermal Fibroblasts (HDF) were cultured in DMEM (Sigma-Aldrich, St Louis, Mo., USA). The medium was supplemented with 10% fetal calf serum (BioClear, Wiltshire, UK), 2 mM L-glutamin, 100 U/ml penicillin, 100 μg/ml streptomycin (Sigma-Aldrich).
(§2) The MTT assay is a colorimetric assay widely used to study cell viability. It is based on the ability of NAD(P)H-dependent cellular oxidoreductase enzymes to reduce the MTT tetrazolium dye. The cells were treated with 0, 5, 10, 20 & 40 μM of OVT & AA for 72 h and then MTT was added and cytotoxicity was analyzed by a plate reader.
(§3) HPV-positive cervical cancer cells, SiHa, Hela cells, patient-derived HPV positive head and neck cancer cells and non-cancer human fibroblasts were treated with OVT at the dose range of 0, 5, 10, 20 and 40 μM and subjected to MTT assay and IC50 values were determined.

[2] = tested on: HeLa HPV 18 positive cervical cancer cells; test: MTT assay, HeLa cells; assay type: cell-based, human; conditions: 72 h
Procedure: as §1, §2, §3

[3] = tested on: UT-SCC 60A patient derived HPV positive Head and Neck cancer cells; test: MTT assay, UT-SCC 60A; assay type: cell-based, human; conditions: 72 h
Procedure: as §2, §3

[4] = tested on: UT-SCC 60B patient derived HPV positive Head and Neck cancer cells; test: MTT assay, UT-SCC 60B; assay type: cell-based, human; conditions: 72 h
Procedure: as §2, §3

[5] = tested on: UT-SCC 65 patient derived HPV positive Head and Neck cancer cells; test: MTT assay, UT-SCC 65; assay type: cell-based, human; conditions: UT-SCC 65, 72 h
Procedure: as §2, §3

[6] = tested on: UT-SCC 69 patient derived HPV positive Head and Neck cancer cells; test: MTT assay, UT-SCC 69; assay type: cell-based, human; conditions: UT-SCC 69, 72 h
Procedure: as §2, §3

[7] = tested on: UT-SCC 102 patient derived HPV positive Head and Neck cancer cells; test: MTT assay, UT-SCC 102; assay type: cell-based, human; conditions: UT-SCC 102, 72 h
Procedure: as §2, §3

[8] = tested on: non-cancer human fibroblast cells; test: MTT assay, non-cancer human fibroblasts; assay type: cell-based; conditions: 72 h
Procedure: as §2, §3

SiHa cells [9] = test: Activated caspase-3 by flow cytometry; assay type: cell-based, human
Procedure: SiHa cells were treated with 0, 20 & 40 μM AA or OVT or solvent control for 24 & 48 h. Activated caspase-3 in cells was labeled with phyco-erythrin-conjugated antibody according to manufacturer's protocol (PE Active Caspase-3 Apoptosis Kit; BD Pharmingen, San Diego, Calif.) and analyzed by FACSCalibur flow cytometer (FL-2, FSC, BD Pharmingen).
We then incubated the cells with 0, 20 & 40 μM AA & OVT 24 and 48 hours, and determined the percentage of cells that contained activated caspase-3 as a measure of apoptosis.

[10] = tested on: K87 primary skin fibroblast cells; test: MTT assay, K87 fibroblasts; assay type: cell-based, human; conditions: 72 h
Procedure: as §2, §3

[11] = tested on: K74 primary skin fibroblast cells; test: MTT assay, K74 fibroblasts; assay type: cell-based, human; conditions: 72 h
Procedure: as §2, §3

SiHa cells [12] = test: Phase contrast microscopy of SiHa cells; assay type: cell-based, human; conditions: 40 μM
Description: In order to examine the mechanism underlying the previously reported cytotoxicity of OVT, we investigated if OVT would induce apoptotic death of cultured SiHa cervical cancer cells.

SiHa cells [13] = test: Cell-IQ high content imaging, proliferation of SiHa; assay type: cell-based, human; conditions: various doses, till 72 h
Procedure: (§4) SiHa cells—HPV 16 positive cervical cancer cell line; HeLa—HPV 18 positive cervical cancer cell line. […] Numbers 1-6 on the x-axis indicate 12 h intervals. The area of the plate that cells cover is indicated on the y-axis (arbitrary number of units).
(§5) The Cell-IQ Real-time imaging provides information on how the compounds are affecting cell morphology and cell proliferation at various doses up to 72 h. A rigorous image analysis protocol was developed to assess the effects of the compounds on cell proliferation.
(§6) The cells were imaged by high content imaging in Cell-IQ and the proliferation of the cells was observed till 72 h.

HeLa cells = test: Cell-IQ high content imaging, proliferation of HeLa; assay type: cell-based, human; conditions: various doses, till 72 h
Procedure: as §4, §5, §6

SiHa cells [14] = test: Western blotting of SiHa cell lysates; assay type: cell-based, human
Procedure: Whole cell lysates were prepared by lysing the cells in Laemmli sample buffer (Laemmli, 1970) and boiling the samples for 10 min after which proteins were separated in 12.5-15% SDS-PAGE. Western blotting was performed using antibodies against caspase 3 (Cell Signaling), HPV16 E6, E7 (Santa Cruz Biotechnology, Inc, Santa Cruz, Calif.), and […] (clone AC-40; Sigma-Aldrich). Horseradish peroxidase-conjugated secondary antibodies were obtained from Southern Biotechnology Associates (Birmingham, Ala.), Promega (Madison, Wis.) and Amersham Biosciences (Freiburg, Germany). The results were visualized using the ECL method (Amersham Biosciences) on X-ray film. The presented Western blot results are representative of at least three independent experiments. SiHa cervical cancer cells have been transformed by high-risk human papillomavirus (HPV). As E6 and E7 play such critical roles in SiHa cell transformation, the expression of these viral proteins was examined.

Compound	IC50 [1] [µM]	IC50 [2] [µM]	IC50 [3] [µM]	IC50 [4] [µM]	IC50 [5] [µM]	IC50 [6] [µM]	IC50 [7] [µM]	toxicity to non-cancer human fibroblast cells [8]	activation of caspase-3 (SiHa cells [9]; 40 μM, after 48 h)	IC50 [10] [µM]	IC50 [11] [µM]	cell death in SiHa cells (SiHa cells [12])	effect on cell morphology (SiHa cells [12]; 72 hours, SiHa)	cell proliferation (SiHa cells [13])	cell proliferation (HeLa cells)	activation of caspase-3 (SiHa cells [9]; 20 μM, after 24 h, compared with 40 μM AA after 48 h)	activation of caspase-3 compared to AA at the same concentration (SiHa cells [9]; 40 μM, after 48 h)	cleavage of caspase-3 (SiHa cells [14]; 20-40 μM)	HPV E6 and E7 viral proteins (SiHa cells [14]; Western blot)	cIAP2 protein level (SiHa cells [14]; Western blot)
C=C1C(=O)OC2/C=C(/C)CC/C=C(\C(=O)O)CC/C=C(\C)CCC12 (stereo not drawn) [Anisomelic acid (AA), Anisomelic acid, reference compound]	32.1	33.2	18	22.8	42.8	23.9	28.2	not toxic at all	marked activation	–	–	–	–	–	–	–	–	–	–	–
Ovatodiolide	10.7	10.7	5.53	3.33	14.1	0.859	7.73	–	–	19.7	13.2	induced cell death	clear effect on cell morphology	inhibited the cell proliferation	inhibited the cell proliferation	higher activation	almost doubled	induced the cleavage	downregulation	downregulation
